This assay deals with Ubiquitin carboxyl-terminal hydrolase 28 (Homo sapiens) (UniProt Q96RU2). Nature of the assay: Ubiquitin-specific peptidase 28 DUB inhibitors, biochemical concentration-dependence assay, validation of primary screening hits (AID 1645866). The conditions noted are these: purified USP28, ubiquitin-rhodamine fluorescence, 30 min.

Each structure is given as a SMILES string. The source made the active and inactive calls.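 How the source made its calls: active means in confirmatory dose-response testing, peak deubiquitinase inhibition of 30% or more; inactive means the rest.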

Chain of Ubiquitin carboxyl-terminal hydrolase 28 (Homo sapiens) (Q96RU2 whole entry, looked up): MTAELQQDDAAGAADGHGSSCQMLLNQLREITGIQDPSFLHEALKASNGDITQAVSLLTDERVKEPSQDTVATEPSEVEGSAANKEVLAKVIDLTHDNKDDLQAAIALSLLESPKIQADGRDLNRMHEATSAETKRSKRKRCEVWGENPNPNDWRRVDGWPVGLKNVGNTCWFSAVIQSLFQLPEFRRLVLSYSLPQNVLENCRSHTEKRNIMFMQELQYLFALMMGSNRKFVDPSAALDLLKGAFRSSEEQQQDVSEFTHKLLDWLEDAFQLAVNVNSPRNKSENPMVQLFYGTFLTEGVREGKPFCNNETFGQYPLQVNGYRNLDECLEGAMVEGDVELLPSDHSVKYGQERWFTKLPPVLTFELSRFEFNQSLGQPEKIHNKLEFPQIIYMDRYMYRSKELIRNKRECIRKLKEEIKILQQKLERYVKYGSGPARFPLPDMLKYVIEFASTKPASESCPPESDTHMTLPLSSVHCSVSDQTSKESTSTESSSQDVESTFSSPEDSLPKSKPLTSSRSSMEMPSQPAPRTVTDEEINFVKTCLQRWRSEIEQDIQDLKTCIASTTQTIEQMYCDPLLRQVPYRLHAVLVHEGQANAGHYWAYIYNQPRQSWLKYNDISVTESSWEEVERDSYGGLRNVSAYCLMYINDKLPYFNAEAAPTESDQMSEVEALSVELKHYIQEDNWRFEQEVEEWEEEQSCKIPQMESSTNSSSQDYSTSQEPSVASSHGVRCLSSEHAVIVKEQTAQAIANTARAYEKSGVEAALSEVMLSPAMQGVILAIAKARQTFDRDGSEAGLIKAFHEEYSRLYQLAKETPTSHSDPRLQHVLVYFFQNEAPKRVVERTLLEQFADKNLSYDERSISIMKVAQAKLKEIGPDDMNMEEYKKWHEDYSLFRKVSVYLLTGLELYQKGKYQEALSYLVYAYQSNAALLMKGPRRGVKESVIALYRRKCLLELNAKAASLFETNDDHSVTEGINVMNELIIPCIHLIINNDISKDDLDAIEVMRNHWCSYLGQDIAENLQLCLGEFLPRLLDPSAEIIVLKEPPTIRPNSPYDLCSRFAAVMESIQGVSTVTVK

For the molecule `Cc1cc(O)c2c3c(c(O)c4c(c13)O[C@@H](C)C4(C)C)C(=O)C2=O`, the IC50 (in general, the concentration that inhibits the measured activity by half) is 23.5 µM.

Consider `N#Cc1cccc(NC(=O)Nc2cccn(Cc3ccccc3F)c2=O)c1`, for which the IC50 is 4.02 µM. For the molecule `COc1cccc(-c2cc(C(=O)N3CCN(c4ccc(N5CCOCC5)nn4)CC3)[nH]n2)c1`, the IC50 was 3.83 µM. Turning to `CCOC(=O)[C@@H]1[C@@H](c2ccccc2)CN2CCN(C(=O)c3cnccn3)C[C@H]12`, the IC50 is > 50 µM (inactive). Consider `O=C(COC(=O)c1ccc(NS(=O)(=O)c2ccc3c(c2)OCCO3)cc1)NCc1ccc(Cl)cc1`, for which the IC50 is 6.76 µM. In the case of `COCCCNC(=O)c1ccc(Cn2c(=O)c3ccccc3n(CC(=O)Nc3ccc(OC)cc3)c2=O)cc1`, the IC50 was 20.1 µM.

As to `COc1ccc(-c2nnc(SCc3ccccc3C#N)o2)c(OC)c1`, the IC50 was > 50 µM (inactive). For `CN(C)S(=O)(=O)c1ccc(C(=O)Nc2c(C#N)oc3ccccc23)cc1`, the IC50 is > 50 µM (inactive). With `Cn1c(=O)sc2cc(NC(=O)c3ccc(Br)cc3)ccc21`, the IC50 is 2.76 µM.

As for `CCOC(=O)C1CCN(C(=O)c2ccc3c(c2)NC(=O)C2CCCN32)CC1` (stereo not given), the IC50 is > 50 µM (inactive). With `N#Cc1ccccc1COC(=O)c1ccc2ccccc2n1`, the IC50 was 6.94 µM. For `O=C(Nc1ccc2c(c1)OCCO2)Nc1ccc2nc3n(c(=O)c2c1)CCCC3`, the IC50 was 15.1 µM.

Consider `CC1=C(C)C(N(c2ccccc2)c2ccccc2)N(CCC(C)C)C1=O` (stereo not given), for which the half-inhibitory concentration (IC50) is 24.9 µM.

For the molecule `CC(C)(C)c1cc(CCC(=O)Nc2c3c(nc4c2CCC4)CCCC3)cc(C(C)(C)C)c1O`, the IC50 was > 50 µM (inactive). Consider `Cc1cccc(CNC(=O)C2CCCN(S(=O)(=O)Cc3ccc(F)cc3)C2)c1` (stereo not given), for which the IC50 is 26.6 µM. `O=C(Cc1cccc2ccccc12)Nc1nc2ccc(F)cc2s1`: the IC50 is 36.9 µM. For the molecule `COc1cccc(NC(=O)c2ccc(F)cc2Cl)c1`, the IC50 was 18.7 µM. For the molecule `Cc1ccccc1NC(=O)c1cc(S(=O)(=O)N2CCCCCC2)ccc1Cl`, the IC50 was 25.6 µM.

On to `CCc1ccc(-n2c(=O)c3ccccc3n(CC(=O)NCCC3=CCCCC3)c2=O)cc1`, for which the IC50 was 14.5 µM. For `COc1ccc(CCN2COc3c(cc(Cl)c4cccnc34)C2)cc1OC`, the IC50 was 14.1 µM. In the case of `Cc1c(-c2ccc(C#N)cc2)oc2ccc(Br)cc2c1=O`, the IC50 is 1.8 µM. In the case of `O=C(Nc1cc(F)c2nc(N3CCOCC3)ccc2c1)C1CC1`, the IC50 was 44.2 µM. Consider `Cc1ccccc1NC(=O)C(C)n1c(=O)cc(-c2ccccc2)c2c(C)nn(C)c21` (stereo not given), for which the IC50 is 7.75 µM.

Consider `CCn1c(=O)c2ccccc2n(Cc2nc(-c3ccccc3OC)no2)c1=O`, for which the IC50 is > 50 µM (inactive). On to `CC(=O)N1CCc2cc(S(=O)(=O)NCCC(=O)Nc3cccc(C)c3C)ccc21`, for which the IC50 is 34 µM. With `CCCc1nc2sc3c(N(CC)CC)ncnc3c2c2c1CCC2`, the IC50 is 3.77 µM. As to `Cc1cccc(NC(=O)Nc2nnc(CC(=O)NCc3ccccc3)s2)c1`, the IC50 was 11.3 µM. Regarding `CCc1nc(SCC(=O)Nc2ccccc2Cl)c2oc3ccccc3c2n1`, the IC50 is 0.37 µM. In the case of `CCOc1ccc(NC(=O)Cn2c(=O)n(CC(=O)NCc3ccc(C)cc3)c(=O)c3sccc32)cc1`, the IC50 was 8.61 µM. For `N#Cc1ccc(COC(=O)c2ccc3ccccc3n2)cc1`, the IC50 is 3.62 µM. Consider `COc1ccc(C)cc1NC(=O)C1CC(=O)Nc2nc(SCc3ccccc3)nn21` (stereo not given), for which the half-maximal inhibitory concentration (IC50) was 14.7 µM.

For `Cc1cc(C)c2c(-n3cccc3)c(C(=O)NCCc3ccc(S(N)(=O)=O)cc3)sc2n1`, the IC50 was 2.55 µM. Turning to `O=C(CSc1nnc2n1CCCCC2)Nc1ccc2[nH]c(=O)[nH]c2c1`, the IC50 is 34.8 µM. In the case of `O=C(NCc1ccc(F)cc1)C1CCN(c2cnc(N3CCCCC3)nc2)CC1`, the IC50 is 0.695 µM. In the case of `O=C(Nc1ccccc1)C1CCCN(C(=O)c2cc3ccccc3[nH]2)C1` (stereo not given), the IC50 was 39.1 µM. As for `Cc1nn(C)c2c1[C@@H](c1ccc(F)cc1)[C@H](NC(=O)c1ccccc1)C(=O)N2`, the IC50 was 16 µM. `Cn1c(=O)cc(SCC(=O)NC2CCN(Cc3ccccc3)CC2)c2ccc(Cl)cc21`: the IC50 was 31.6 µM. As for `COc1cc2c(cc1OC)-c1cc(Nc3ccc(Br)cc3)nc(=O)n1CC2`, the IC50 is 1.84 µM. For `COc1ccc(C2CC(=O)Nc3n[nH]c(-c4ccccc4)c32)cc1OC` (stereo not given), the IC50 is 33.7 µM. Under `CN(C)S(=O)(=O)c1ccc(N2CCCC2)c(C(=O)Nc2ccc(-c3cn4ccsc4n3)cc2)c1` stands > 50 µM (inactive); under `COc1ccc(NC(=O)c2nnn(-c3ccccc3)c2C)cc1OC`, 11.6 µM. Take `O=C(COc1cccc2ccc(N3CCC(Cc4ccccc4)CC3)nc12)NCc1ccc(F)cc1`: the IC50 was 20.7 µM. Take `CC1=C[C@@H](C)CC[C@H]2O[C@@H](C3=C(O)C(=O)C(C)=C4O[C@](O)(C=C43)[C@@H](C)C[C@H](C)C1)[C@H](C)[C@@H](O)[C@H]2C`: the IC50 is 19.5 µM. In the case of `O=C(COc1ccc(Cl)cc1Cl)Nc1ccc2[nH]c(=O)[nH]c2c1`, the IC50 was 5.44 µM. Consider `Cc1nn(-c2cccc(F)c2)c2c1C(C(=O)c1ccc(Cl)s1)CC(=O)N2` (stereo not given), for which the IC50 is 48.6 µM.

`N#C/C(=C\c1ccc(-c2cc(Cl)ccc2Cl)o1)c1nnc2n1CCCCC2`: the IC50 is > 50 µM (inactive). In the case of `CCCNc1cc(-c2ccccc2)nc2nc(-c3cccnc3)nn12`, the IC50 was > 50 µM (inactive). Then `CN(C)Cc1ccc(C(=O)Nc2ccc(-c3nccs3)cc2)cc1`, with 1.1 µM; and `O=C(Nc1ccc2c(c1)OCCO2)Nc1nnc(CC(=O)N2CCCCC2)s1`, with 20.5 µM. Under `Cc1cccc(CNC(=O)c2ccc(-c3nnc(-c4cccc(C)c4)o3)cc2)c1` stands 17.7 µM; under `CC1(C)CC(n2[nH]c(=O)c3c2NC(=O)CSC3c2ccc(OCc3ccccc3)cc2)CCO1` (stereo not given), 17.7 µM. As to `Cc1ccc2nnc(-c3ccccc3)c(C(=O)N3CCN(c4ccccn4)CC3)c2c1`, the IC50 is 35 µM. As to `CN1C(=O)COc2ccc(NC(=O)c3cc(-c4ccccc4)on3)cc21`, the IC50 is > 50 µM (inactive). `Cc1ccc(-c2nc(-c3cccs3)cc(C(F)(F)F)c2C#N)cc1`: the IC50 is > 50 µM (inactive). With `CCCCOc1ccc(C(=O)Nc2ccc3c(c2)CCC(=O)N3CCC)cc1`, the IC50 is 1.01 µM.

For `Cc1ccccc1C(=O)NCCn1cc(SCC(=O)Nc2ccc3c(c2)OCCO3)c2ccccc21`, the IC50 is 35.1 µM.

As for `O=C(Nc1ccc2c(c1)OCCO2)c1ccc(N2CCCC2=O)cc1`, the IC50 was 7.18 µM. Then `COc1ccc(C(=O)CCN2CCOCC2)cc1[N+](=O)[O-]`, with > 50 µM (inactive); and `COc1c2nc3ccccc3oc-2cc(=O)c1OC`, with > 50 µM (inactive); and `O=C(COc1ccc(F)cc1)Nc1cnc(-c2ccc(Cl)cc2)nc1`, with 34.2 µM. Turning to `Cc1ccc(S(=O)(=O)N2CCC3(CC2)NC(=O)c2ccccc2N3)c(C)c1`, the IC50 is 31.3 µM. `COc1ccc(COC(=O)C2=C(C)NC(=O)CC2c2cccc([N+](=O)[O-])c2)cc1` (stereo not given): the IC50 is 3.06 µM. In the case of `COc1ccc(-c2cc(N3CCC(NC(=O)c4ccccc4)C3)n[nH]2)cc1` (stereo not given), the IC50 is 16 µM. Then `COCC(C)Nc1ncc(-c2cnccn2)c(-c2ccc(C)s2)n1` (stereo not given), with > 50 µM (inactive). `O=C(CCCCn1c(=O)c2ccccc2n(Cc2ccccc2F)c1=O)NCCc1ccccc1`: the IC50 was 15.5 µM. `Fc1ccc(-c2noc(-c3nnc(NCc4cccnc4)c4ccccc34)n2)cc1`: the IC50 was 2.97 µM. Regarding `O=C1N[C@@H](Cc2ccccc2)C(=O)N2[C@H]3Nc4ccccc4[C@@]3([C@]34C[C@H]5C(=O)N[C@@H](Cc6ccccc6)C(=O)N5[C@H]3Nc3ccccc34)C[C@@H]12`, the half-inhibitory concentration (IC50) is 29.4 µM. For `CC1CCN(S(=O)(=O)c2ccc(C(=O)Nc3ccc(S(N)(=O)=O)cc3)cc2)CC1`, the IC50 was 30.1 µM.

For the molecule `CC(C)CCN1C(=O)C2C(C(=O)Nc3ccc(Oc4ccccc4)cc3)C3C=CC2(O3)C1C(=O)NC1CCCCC1` (stereo not given), the IC50 is 37.5 µM. For the molecule `COc1ccc(C(C(=O)NC2CCCCC2)N(C(=O)CCCC(=O)Nc2ccccn2)c2ccccc2C)cc1` (stereo not given), the IC50 was 17.1 µM. Turning to `CS(=O)(=O)N1CCCc2cc(C(=O)Nc3ccc4c(c3)OCO4)ccc21`, the IC50 is 4.54 µM. On to `Nc1ncnc(SCc2ccc(Cl)cc2)n1`, for which the IC50 is 19.7 µM. In the case of `Cc1cccc(C(=O)Nc2cccc(SC(C(=O)Nc3ccc(O)c(C(=O)O)c3)c3ccccc3)c2)c1` (stereo not given), the IC50 was 3.72 µM. As for `CC(=O)N1CCc2cc(CNC(=O)Nc3cc(C)ccc3C)ccc21`, the IC50 is 46.7 µM. Then `Cc1cc(=O)n(CC(=O)NCc2ccccc2F)c2c1c(C)nn2-c1ccccc1`, with 18.5 µM; and `Cc1ccc(C(=O)Nc2ccc3c(c2)C(=O)N(C)c2ccccc2O3)cc1C`, with 2.75 µM; and `CNC(=O)c1c2n(c3ncccc13)CCN(S(=O)(=O)c1ccc(-c3ccccc3)cc1)C2`, with 10.2 µM. As for `COc1cccc(NC(=O)Nc2ccc(CCc3nc4ccccc4[nH]3)cc2)c1`, the IC50 was 6.28 µM. Under `CC(=O)N1CCc2cc(S(=O)(=O)NCc3ccc(C)cc3)ccc21` stands > 50 µM (inactive); under `Oc1ccc(-c2nc3ccc(Cl)cn3c2NC2CCCCC2)cc1`, 23 µM. Regarding `O=C(NCc1ccccc1)Nc1cccc2ccccc12`, the IC50 is 29.3 µM. Turning to `CC1CCCCN1CCCNC(=O)c1ccc(N2CCc3ccccc32)s1` (stereo not given), the IC50 is 10.6 µM. Under `O=C(Nc1ccc(N2CCOCC2)cc1)c1cc(=O)[nH]c2ccccc12` stands 25.4 µM; under `CCOc1ccc(-n2c(C)cc(/C=C(\C#N)c3nc4ccccc4[nH]3)c2C)cc1`, > 50 µM (inactive). On to `Cc1cccc(N2C(=O)/C(=C\c3ccc4c(c3)OCCO4)c3ccccc3C2=O)c1`, for which the IC50 was 19.2 µM. Take `O=S(=O)(c1ccccc1)N1CCN2Cc3ccccc3N(Cc3ccccc3)CC2C1` (stereo not given): the IC50 was > 50 µM (inactive). As for `Nc1ncnc2c1ncn2[C@@H]1O[C@H](CO)C[C@@H]1O`, the IC50 is 26.4 µM. In the case of `O=C(c1ccc2occc2c1)N1CCC(S(=O)(=O)c2ccc(-c3ccco3)cc2)CC1`, the IC50 was > 50 µM (inactive). For `O=C(Nc1ccc(NS(=O)(=O)c2ccc3c4c(cccc24)CC3)cc1)c1ccccc1`, the IC50 is 37.7 µM. Then `COc1cccc(-c2cc(=O)[nH]c(Nc3nc(C)c4ccccc4n3)n2)c1`, with 25.9 µM.

Source of the values: PubChem BioAssay AID1645866 (Buhrlage Lab, Dana-Farber Cancer Institute and Novartis …, 2021).
